The values that follow are results of earlier work, collected in patent US8840932B2, “Antiseptic compositions and methods” (priority 2002, dated 2014).

For this data set the following is noted: 25° C.

Take `II` [elemental iodine, iodine]: the solubility in water is given as 0.03 wt-%.
